# Measured values: patent US20200247897A1, “THERAPEUTIC ANTIBODIES BASED ON MUTATED IGG HEXAMERS” (GENMAB B.V., priority 2017, published 2020)
# Read-outs that look alike come from different tables or passages of the source.
# Tests used:
# SW480 = assay: Drug combination screen (ATPlite, Synergy Score), SW480; assay type: cell-based, human
# DLD-1 = assay: Drug combination screen (ATPlite, Synergy Score), DLD-1
# SNU-C2B = assay: Drug combination screen (ATPlite, Synergy Score), SNU-C2B
# LS-411N = assay: Drug combination screen (ATPlite, Synergy Score), LS-411N; assay type: cell-based, human
# HCT 116 = assay: Drug combination screen (ATPlite, Synergy Score), HCT 116
# [1] = compound in combination with IgG1-hDR5-01-G56T-E430G + IgG1-hDR5-05-E430G, SW480, 72 hour ATPlite, 6x6 matrix
# [2] = compound in combination with IgG1-hDR5-01-G56T-E430G + IgG1-hDR5-05-E430G, DLD-1, 120 hour ATPlite, 6x6 matrix
# [3] = compound in combination with IgG1-hDR5-01-G56T-E430G + IgG1-hDR5-05-E430G, SNU-C2B, 72 hour ATPlite, 6x6 matrix
# [4] = compound in combination with IgG1-hDR5-01-G56T-E430G + IgG1-hDR5-05-E430G, LS-411N, 72 hour ATPlite, 6x6 matrix
# [5] = compound in combination with IgG1-hDR5-01-G56T-E430G + IgG1-hDR5-05-E430G, HCT 116, 120 hour ATPlite, 6x6 matrix
Compound,Synergy Score SW480 (SW480; [1]),Synergy Score DLD-1 (DLD-1; [2]),Synergy Score SNU-C2B (SNU-C2B; [3]),Synergy Score LS-411N (LS-411N; [4]),Synergy Score HCT-116 (HCT 116; [5]),Synergy Score SW480 (SW480),Synergy Score DLD-1 (DLD-1),Synergy Score SNU-C2B (SNU-C2B),Synergy Score LS-411N (LS-411N),Synergy Score HCT-116 (HCT 116)
Nc1cccc2c1CN(C1CCC(=O)NC1=O)C2=O (stereo not drawn) [Lenalidomide],0,0,0.2,0.1,0,–,–,–,–,–
Oc1c2ccccc2c2c3c(cccc13)N=N2 [SP 600125],0.9,3.3,2,0.5,0.6,–,–,–,–,–
COc1cccc2c1C(=O)c1c(O)c3c(c(O)c1C2=O)C[C@@](O)(C(=O)CO)C[C@@H]3O[C@H]1C[C@H](N)[C@@H](O)[C@H](C)O1 [Epirubicin],17.7,15.6,15.1,5.8,4.9,–,–,–,–,–
CNC(=O)c1ccc(-c2cnc3ncc(Cc4ccc5ncccc5c4)n3n2)cc1F [INCB28060],0,0.2,0.4,0,0.1,–,–,–,–,–
C=CCc1cccc(/C=N/NC(=O)CN2CCN(Cc3ccccc3)CC2)c1O [PAC 1],3.9,10.6,6,2.9,4.2,–,–,–,–,–
Cc1cc(NC(=O)c2cccc(NC(=O)/C=C/CN(C)C)c2)ccc1Nc1nccc(-c2cccnc2)n1 [JNK-IN-8],0.4,0.2,1.1,0.1,0,–,–,–,–,–
CNC(=O)c1cc(Oc2ccc(NC(=O)Nc3ccc(Cl)c(C(F)(F)F)c3)cc2)ccn1 [Sorafenib],3.9,2.6,2.9,6,0.5,–,–,–,–,–
CC(=O)Nc1cccc(-n2c(=O)n(C3CC3)c(=O)c3c(Nc4ccc(I)cc4F)n(C)c(=O)c(C)c32)c1 [Trametinib],7.2,4.1,0.6,0.9,4,–,–,–,–,–
Cc1ccccc1CN1C(=O)C2=C(CCN(Cc3ccccc3)C2)N2CCN=C12 [TIC10],–,–,–,–,–,3.4,15.5,13.1,23.3,2.2
C[C@@H]1C[C@H]2[C@@H]3CCC4=CC(=O)C=C[C@]4(C)[C@@]3(F)[C@@H](O)C[C@]2(C)[C@@]1(O)C(=O)CO [Dexamethasone],0,0.1,0.8,0.4,0,–,–,–,–,–
CS(=O)(=O)N1CCN(Cc2cc3nc(-c4cccc5[nH]ncc45)nc(N4CCOCC4)c3s2)CC1 [GDC-0941],12.9,4.9,7.1,12.4,2,–,–,–,–,–
CN(C)CCCn1cc(C2=C(c3c[nH]c4ccccc34)C(=O)NC2=O)c2ccccc21 [GF 109203X],–,–,–,–,–,6.2,4.3,1.6,5.3,3
CS(=O)(=O)c1ccc(C(=O)Nc2ccc(Cl)c(-c3ccccn3)c2)c(Cl)c1 [GDC-0449],0.1,0.1,0.3,0.2,0,–,–,–,–,–
CC[C@@]1(O)C(=O)OCc2c1cc1n(c2=O)Cc2cc3cc(O)ccc3nc2-1 [10-Hydroxycamptothecin],–,–,–,–,–,30.1,21.9,12.4,16.9,9.6
CC(=O)Nc1nc(C)c(-c2ccc(Cl)c(S(=O)(=O)NCCO)c2)s1 [PIK-93],–,–,–,–,–,4.1,1,5.1,5.2,1.2
N.N.[Cl][Pt][Cl] [Cisplatin],18.9,8.8,12.9,15.4,6.7,–,–,–,–,–
Cc1ccc(C(=O)Nc2ccc(CN3CCN(C)CC3)c(C(F)(F)F)c2)cc1C#Cc1cnc2cccnn12 [AP24534],3.7,4.3,1.8,2.6,1.4,–,–,–,–,–
CC(C)(C)c1nc(-c2cccc(NS(=O)(=O)c3c(F)cccc3F)c2F)c(-c2ccnc(N)n2)s1 [Dabrafenib],3.1,2.2,0.5,0.5,0.7,–,–,–,–,–
Cn1c(=O)n(-c2ccc(C(C)(C)C#N)cc2)c2c3cc(-c4cnc5ccccc5c4)ccc3ncc21 [BEZ235],3.2,2.4,5.4,1.1,1.4,–,–,–,–,–
Cn1cnc2c(F)c(Nc3ccc(Br)cc3Cl)c(C(=O)NOCCO)cc21 [AZD6244],11.7,1.5,0.6,0.7,2.7,–,–,–,–,–
COCCNCc1ccc(-c2cc3nccc(Oc4ccc(NC(=S)NC(=O)Cc5ccc(F)cc5)cc4F)c3s2)nc1 [MGCD-265],0.5,0.2,3.1,0.7,0.1,–,–,–,–,–
COc1ccc(-c2ccc3c(N4CCOC[C@@H]4C)nc(N4CCOC[C@@H]4C)nc3n2)cc1CO [AZD 8055],3.9,3,12.2,10,1.7,–,–,–,–,–
O=C1NC(=O)C(c2ccccc2[N+](=O)[O-])=C1Nc1ccc(O)c(Cl)c1 [SB 415286],3.8,0.4,0.7,2.1,0.8,–,–,–,–,–
C[C@H]1C[C@@H]2[C@H]([C@@H](O)C[C@@]3(C)[C@H]2CC[C@]3(O)C(=O)CO)[C@@]2(C)C=CC(=O)C=C12 [Methylprednisolone],0,0,0.6,0,0,–,–,–,–,–
COCCn1c2c([n+](Cc3cnccn3)c1C)C(=O)c1ccccc1C2=O [YM155],12.1,5.2,11.5,9,0.5,–,–,–,–,–
CC(C)=CCC/C(C)=C/CC/C(C)=C/CSc1ccccc1C(=O)O [Salirasib],0.4,0.1,0.4,0,0.1,–,–,–,–,–
N.N.O=C([O-])C1(C(=O)[O-])CCC1.[Pt+2] [Carboplatin],19.5,11.3,11.6,12,5.8,–,–,–,–,–
